Values of other authors in patent US20220331213A1, “ANTIMICROBIAL COMPOSITIONS COMPRISING A BENZOIC ACID ANALOG AND ACID PH BUFFERS” (eHealth Nexus LLC, priority 2021, published 2022).
Values belong to the molecule of their own block, whether it stands above or below them.

Key:
[1] = for pK2 / pK1: aqueous; for pK2: second dissociation of di-/polycarboxylic acid; for pK1: first dissociation of di-/polycarboxylic acid; for pKa (acid dissociation constant): aqueous pKa
rhinovirus = conditions: 2% salicylic acid on skin

Structure (SMILES): O=C(O)[C@H](O)[C@@H](O)[C@H](O)[C@H](O)CO [gluconic acid]
pKa (acid dissociation constant) [1]: 3.85

Structure (SMILES): O=C(O)CCCC(=O)O [glutaric acid]
pKa (acid dissociation constant) [1]: 3.76
pK1 [1]: about 4.3
pK2 [1]: about 5.4

Structure (SMILES): O=C(O)c1ccccc1O [salicylic acid]
residual anti-rhinovirus activity on the skin (rhinovirus): diminish over 3 hours

The remaining lines, values ahead:

pK2 [1]: about 5.4
Structure (SMILES): O=C(O)CCCCC(=O)O [adipic acid]

pK1 [1]: about 2.9
Structure (SMILES): O=C(O)CC(O)(CC(=O)O)C(=O)O [citric acid]

pKa (acid dissociation constant) [1]: ~3.8
Structure (SMILES): O=C(O)CO [glycolic acid]

pKa (acid dissociation constant) [1]: 4.82
Structure (SMILES): O=C(O)c1cccnc1 [nicotinic acid]
